Measured values reported in PubChem BioAssay (NCI).
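Assay format: 96-well plates, 48-hour exposure. Abbreviation: GI50, concentration required for 50% inhibition of growth. TGI: total growth inhibition.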

How the values were obtained:
Assay in all cases: NCI tumour cell line growth inhibition, 48 h
MDA-MB-435 = system: MDA-MB-435
HCC-2998 colon = system: HCC-2998 colon
NCI-H23 lung = system: NCI-H23 lung
SN12C renal = system: SN12C renal
KM12 colon = system: KM12 colon
NCI-H226 lung = system: NCI-H226 lung
K-562 leukemia = system: K-562 leukemia
HCT-116 colon = system: HCT-116 colon
HCT-15 colon = system: HCT-15 colon
COLO 205 colon = system: COLO 205 colon
SK-MEL-5 melanoma = system: SK-MEL-5 melanoma
OVCAR-8 ovarian = system: OVCAR-8 ovarian
SK-MEL-2 melanoma = system: SK-MEL-2 melanoma
SK-OV-3 ovarian = system: SK-OV-3 ovarian
SK-MEL-28 melanoma = system: SK-MEL-28 melanoma
PC-3 prostate = system: PC-3 prostate
786-0 renal = system: 786-0 renal
MOLT-4 leukemia = system: MOLT-4 leukemia
UACC-257 melanoma = system: UACC-257 melanoma
NCI-H460 lung = system: NCI-H460 lung
M14 melanoma = system: M14 melanoma
HL-60(TB) leukemia = system: HL-60(TB) leukemia
MALME-3M melanoma = system: MALME-3M melanoma
MDA-MB-231 breast = system: MDA-MB-231 breast
OVCAR-3 ovarian = system: OVCAR-3 ovarian
IGROV1 ovarian = system: IGROV1 ovarian
TK-10 renal = system: TK-10 renal
MCF7 breast = system: MCF7 breast
SF-539 CNS = system: SF-539 CNS
CAKI-1 renal = system: CAKI-1 renal
OVCAR-4 ovarian = system: OVCAR-4 ovarian
SR leukemia = system: SR leukemia
SF-295 CNS = system: SF-295 CNS
CCRF-CEM leukemia = system: CCRF-CEM leukemia
HT29 colon = system: HT29 colon
RPMI-8226 leukemia = system: RPMI-8226 leukemia
RXF 393 renal = system: RXF 393 renal
LOX IMVI melanoma = system: LOX IMVI melanoma
NCI/ADR-RES ovarian = system: NCI/ADR-RES ovarian
DU-145 prostate = system: DU-145 prostate
T-47D breast = system: T-47D breast
BT-549 breast = system: BT-549 breast
HS 578T breast = system: HS 578T breast
A549 NSCLC = system: A549 NSCLC
ACHN renal = system: ACHN renal
SF-268 CNS = system: SF-268 CNS
OVCAR-5 ovarian = system: OVCAR-5 ovarian
U251 CNS = system: U251 CNS
UO-31 renal = system: UO-31 renal
SNB-75 CNS = system: SNB-75 CNS
EKVX NSCLC = system: EKVX NSCLC
UACC-62 melanoma = system: UACC-62 melanoma
HOP-62 NSCLC = system: HOP-62 NSCLC
SNB-19 CNS = system: SNB-19 CNS
SW-620 colon = system: SW-620 colon
A498 renal = system: A498 renal
HOP-92 NSCLC = system: HOP-92 NSCLC
NCI-H522 lung = system: NCI-H522 lung

Compound `O=c1c(Br)ccc(Br)cc1Br` has a GI50 (MDA-MB-435) of 1850 nM, a TGI (MDA-MB-435) of 4380 nM and a GI50 (HCC-2998 colon) of 3070 nM. For the same compound, the TGI (HCC-2998 colon) was 8600 nM, the GI50 (NCI-H23 lung) was 1720 nM and the TGI (NCI-H23 lung) was 3660 nM. It also gave a GI50 (SN12C renal) of 2110 nM, a TGI (SN12C renal) of 4680 nM and a GI50 (KM12 colon) of 2640 nM. The TGI (KM12 colon) was 6360 nM, the GI50 (NCI-H226 lung) was 2940 nM and the TGI (NCI-H226 lung) was 9700 nM. It also gave a GI50 (K-562 leukemia) of 527 nM, a TGI (K-562 leukemia) of 3640 nM and a GI50 (HCT-116 colon) of 1510 nM. For the same compound, the TGI (HCT-116 colon) was 2880 nM, the GI50 (HCT-15 colon) was 752 nM and the TGI (HCT-15 colon) was 2480 nM. It also gave a GI50 (COLO 205 colon) of 216 nM, a TGI (COLO 205 colon) of 442 nM and a GI50 (SK-MEL-5 melanoma) of 3190 nM. It also gave a TGI (SK-MEL-5 melanoma) of 10900 nM, a GI50 (OVCAR-8 ovarian) of 2750 nM and a TGI (OVCAR-8 ovarian) of 8780 nM. It also gave a GI50 (SK-MEL-2 melanoma) of 2390 nM, a TGI (SK-MEL-2 melanoma) of 5850 nM and a GI50 (SK-OV-3 ovarian) of 15700 nM. It also gave a TGI (SK-OV-3 ovarian) of 29200 nM, a GI50 (SK-MEL-28 melanoma) of 2550 nM and a TGI (SK-MEL-28 melanoma) of 5830 nM. It also gave a GI50 (PC-3 prostate) of 1850 nM, a TGI (PC-3 prostate) of 3950 nM and a GI50 (786-0 renal) of 2070 nM. For the same compound, the TGI (786-0 renal) was 3700 nM, the GI50 (MOLT-4 leukemia) was 410 nM and the TGI (MOLT-4 leukemia) was 1860 nM. The GI50 (UACC-257 melanoma) was 1910 nM, the TGI (UACC-257 melanoma) was 3490 nM and the GI50 (NCI-H460 lung) was 4880 nM. The TGI (NCI-H460 lung) was 11500 nM, the GI50 (M14 melanoma) was 1480 nM and the TGI (M14 melanoma) was 2910 nM. The GI50 (HL-60(TB) leukemia) was 662 nM, the TGI (HL-60(TB) leukemia) was 2670 nM and the GI50 (MALME-3M melanoma) was 1850 nM. The TGI (MALME-3M melanoma) was 4050 nM, the GI50 (MDA-MB-231 breast) was 1990 nM and the TGI (MDA-MB-231 breast) was 3680 nM. It also gave a GI50 (OVCAR-3 ovarian) of 926 nM, a TGI (OVCAR-3 ovarian) of 2180 nM and a GI50 (IGROV1 ovarian) of 2400 nM. The TGI (IGROV1 ovarian) was 5640 nM, the GI50 (TK-10 renal) was 1550 nM and the TGI (TK-10 renal) was 5230 nM. The GI50 (MCF7 breast) was 3810 nM, the TGI (MCF7 breast) was 77600 nM and the GI50 (SF-539 CNS) was 1920 nM. The TGI (SF-539 CNS) was 4520 nM, the GI50 (CAKI-1 renal) was 1700 nM and the TGI (CAKI-1 renal) was 3320 nM. For the same compound, the GI50 (OVCAR-4 ovarian) was 2470 nM, the TGI (OVCAR-4 ovarian) was 4630 nM and the GI50 (SR leukemia) was 367 nM. For the same compound, the TGI (SR leukemia) was 1480 nM, the GI50 (SF-295 CNS) was 8010 nM and the TGI (SF-295 CNS) was 22400 nM. It also gave a GI50 (CCRF-CEM leukemia) of 317 nM, a TGI (CCRF-CEM leukemia) of 1580 nM and a GI50 (HT29 colon) of 1770 nM. For the same compound, the TGI (HT29 colon) was 4450 nM, the GI50 (RPMI-8226 leukemia) was 532 nM and the TGI (RPMI-8226 leukemia) was 2890 nM. The GI50 (RXF 393 renal) was 1650 nM, the TGI (RXF 393 renal) was 3060 nM and the GI50 (LOX IMVI melanoma) was 897 nM. It also gave a TGI (LOX IMVI melanoma) of 2350 nM, a GI50 (NCI/ADR-RES ovarian) of 2560 nM and a TGI (NCI/ADR-RES ovarian) of 7160 nM. It also gave a GI50 (DU-145 prostate) of 1750 nM, a TGI (DU-145 prostate) of 3140 nM and a GI50 (T-47D breast) of 744 nM. The TGI (T-47D breast) was 3710 nM, the GI50 (BT-549 breast) was 2080 nM and the TGI (BT-549 breast) was 3980 nM. The GI50 (HS 578T breast) was 3440 nM, the TGI (HS 578T breast) was 23100 nM and the GI50 (A549 NSCLC) was 9020 nM. It also gave a TGI (A549 NSCLC) of 31800 nM, a GI50 (ACHN renal) of 1260 nM and a TGI (ACHN renal) of 2530 nM. The GI50 (SF-268 CNS) was 2620 nM, the TGI (SF-268 CNS) was 6570 nM and the GI50 (OVCAR-5 ovarian) was 1760 nM. The TGI (OVCAR-5 ovarian) was 3460 nM, the GI50 (U251 CNS) was 1840 nM and the TGI (U251 CNS) was 3340 nM. The GI50 (UO-31 renal) was 1510 nM, the TGI (UO-31 renal) was 2950 nM and the GI50 (SNB-75 CNS) was 1830 nM. The TGI (SNB-75 CNS) was 4240 nM, the GI50 (EKVX NSCLC) was 1710 nM and the TGI (EKVX NSCLC) was 3390 nM. The GI50 (UACC-62 melanoma) was 1750 nM, the TGI (UACC-62 melanoma) was 3270 nM and the GI50 (HOP-62 NSCLC) was 2380 nM. It also gave a TGI (HOP-62 NSCLC) of 5580 nM, a GI50 (SNB-19 CNS) of 11700 nM and a TGI (SNB-19 CNS) of 25200 nM. It also gave a GI50 (SW-620 colon) of 268 nM, a TGI (SW-620 colon) of 673 nM and a GI50 (A498 renal) of 14700 nM. For the same compound, the TGI (A498 renal) was 28500 nM, the GI50 (HOP-92 NSCLC) was 1530 nM and the TGI (HOP-92 NSCLC) was 3050 nM. The GI50 (NCI-H522 lung) was 170 nM and the TGI (NCI-H522 lung) was 364 nM.
